Results as given in patent US20110160167A1, “Steroid Derivatives Acting As Glucocorticosteroid Receptor Agonists” (AstraZeneca AB, priority 2007, published 2011).

Biological target: T1, recombinant human GR (Homo sapiens, UniProt P04150)
T1 construct: purchased Panvera/Invitrogen P2812 (kit P2893)
T1 sequence (P04150 1-777): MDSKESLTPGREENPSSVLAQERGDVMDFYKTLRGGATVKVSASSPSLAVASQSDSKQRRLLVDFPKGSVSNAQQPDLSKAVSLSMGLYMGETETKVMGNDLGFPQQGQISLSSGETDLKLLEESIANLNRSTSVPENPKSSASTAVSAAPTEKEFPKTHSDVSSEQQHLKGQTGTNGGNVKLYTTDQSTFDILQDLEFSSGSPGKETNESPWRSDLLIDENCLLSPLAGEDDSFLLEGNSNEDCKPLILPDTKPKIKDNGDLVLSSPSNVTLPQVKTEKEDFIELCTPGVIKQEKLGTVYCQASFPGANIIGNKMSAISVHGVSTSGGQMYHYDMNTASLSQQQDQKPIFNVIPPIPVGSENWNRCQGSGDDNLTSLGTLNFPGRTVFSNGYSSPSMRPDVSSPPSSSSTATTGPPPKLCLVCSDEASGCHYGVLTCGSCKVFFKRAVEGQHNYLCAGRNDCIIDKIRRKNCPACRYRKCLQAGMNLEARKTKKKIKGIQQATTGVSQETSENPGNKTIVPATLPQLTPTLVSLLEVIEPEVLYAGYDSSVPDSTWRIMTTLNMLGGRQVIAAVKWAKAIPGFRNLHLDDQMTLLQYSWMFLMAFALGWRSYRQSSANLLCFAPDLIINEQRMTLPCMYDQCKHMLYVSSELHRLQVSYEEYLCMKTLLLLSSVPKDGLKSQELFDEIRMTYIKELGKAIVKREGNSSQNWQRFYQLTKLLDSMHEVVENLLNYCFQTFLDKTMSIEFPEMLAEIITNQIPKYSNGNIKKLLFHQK
Assay: Human Glucocorticoid Receptor (GR) Assay (fluorescence polarization, Panvera/Invitrogen kit)
Details: GS Red tracer, 2 hours at room temperature, 100% control 10 μM Dexamethasone, read-out: Inhibition of GR binding, IC50
Protocol: Human Glucocorticoid Receptor (GR) Assay The assay is based on a commercial kit from Panvera/Invitrogen (Part number P2893). The assay technology is fluorescence polarization. The kit utilises recombinant human GR (Panvera, Part number P2812), a Fluoromone™ labelled tracer (GS Red, Panvera, Part number P2894) and a Stabilizing Peptide 10× (Panvera, Part number P2815). The GR and Stabilizing Peptide reagents are stored at −70° C. while the GS Red is stored at −20° C. Also included in the kit are 1M DTT (Panvera, Part number P2325, stored at −20° C.) and GR Screening buffer 10× (Panvera, Part number P2814, stored at −70° C. initially but once thawed stored at room temperature). Avoid repeated freeze/thaws for all reagents. The GR Screening buffer 10× comprises 100 mM potassium phosphate, 200 mM sodium molybdate, 1 mM EDTA and 20% DMSO. Test compounds (1 μL) and controls (1 μL) in 100% DMSO were added to black polystyrene 384-well plates (Greiner low volume black flat-bottom, part number 784076). 0% control was 100% DMSO and 100% control was 10 μM Dexamethasone. Background solution (8 μL; assay buffer 10×, Stabilizing Peptide, DTT and ice cold MQ water) was added to the background wells. GS Red solution (7 μL; assay buffer 10×, Stabilizing Peptide, DTT, GS Red and ice cold water) was added to all wells except background wells. GR solution (7 μL; assay buffer 10×, Stabilizing Peptide, DTT, GR and ice cold water) was added to all wells. The plate was sealed and incubated in a dark at room temperature for 2 hours. The plate was read in an Analyst plate reader (LJL Biosystems/Molecular Devices Corporation) or other similar plate reader capable of recording fluorescence polarization (excitation wavelength 530 nm, emission wavelength 590 nm and a dichroic mirror at 561 nm).

IC50: 12 nM
SMILES: CCC[C@@H]1O[C@@H]2C[C@H]3[C@@H]4CCC5=Cc6c(cnn6-c6ccc(F)cc6)C[C@]5(C)[C@H]4[C@@H](O)C[C@]3(C)[C@]2(C(=O)SCC#N)O1 [Example 25, (4aR,4bS,5S,6aS,6bS,8R,9aR,10aS,10bS)-6b-(cyanomethylthiocarbonyl)-1-(4-fluorophenyl)-5-hydroxy-4a,6a-dimethyl-8-propyl-4,4a,4b,5,6,6a,9a,10,10a,10b,11,12-dodecahydro[1,3]dioxolo[3′,4′]cyclopenta[1′,2′:5,6]naphtho[1,2-f]indazol]
